From PubChem BioAssay (NCI)
Values joined by “and” are separate entries in the source; they are usually repeats but may differ in a detail not shown here. Equal values may be shown once.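 96-well plates; 48 h exposure; 5 concentrations. Endpoints by linear interpolation between flanking doses. Not reached: highest tested concentration assigned. GI50 = concentration required for 50% inhibition of growth. TGI denotes the concentration required for complete inhibition of growth.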

Assays:
Assay in all cases: growth of human tumour cells (NCI), 48 h; in the data active = GI50 below about 0.43 µM; inactive = the rest
MALME-3M melanoma = system: MALME-3M melanoma
K-562 leukemia = system: K-562 leukemia
U251 CNS = system: U251 CNS
ACHN renal = system: ACHN renal
RPMI-8226 leukemia = system: RPMI-8226 leukemia
HCT-116 colon = system: HCT-116 colon
HOP-92 NSCLC = system: HOP-92 NSCLC
HT29 colon = system: HT29 colon
M14 melanoma = system: M14 melanoma
DU-145 prostate = system: DU-145 prostate
SK-MEL-28 melanoma = system: SK-MEL-28 melanoma
BT-549 breast = system: BT-549 breast
UACC-257 melanoma = system: UACC-257 melanoma
MDA-MB-435 = system: MDA-MB-435
OVCAR-8 ovarian = system: OVCAR-8 ovarian
LOX IMVI melanoma = system: LOX IMVI melanoma
T-47D breast = system: T-47D breast
SF-539 CNS = system: SF-539 CNS
NCI/ADR-RES ovarian = system: NCI/ADR-RES ovarian
HL-60(TB) leukemia = system: HL-60(TB) leukemia
OVCAR-3 ovarian = system: OVCAR-3 ovarian
MDA-MB-231 breast = system: MDA-MB-231 breast
HOP-62 NSCLC = system: HOP-62 NSCLC
SF-268 CNS = system: SF-268 CNS
HCT-15 colon = system: HCT-15 colon
A549 NSCLC = system: A549 NSCLC
NCI-H522 lung = system: NCI-H522 lung
OVCAR-4 ovarian = system: OVCAR-4 ovarian
COLO 205 colon = system: COLO 205 colon
CCRF-CEM leukemia = system: CCRF-CEM leukemia
SW-620 colon = system: SW-620 colon
UACC-62 melanoma = system: UACC-62 melanoma
SR leukemia = system: SR leukemia
MOLT-4 leukemia = system: MOLT-4 leukemia
CAKI-1 renal = system: CAKI-1 renal
SF-295 CNS = system: SF-295 CNS
EKVX NSCLC = system: EKVX NSCLC
HS 578T breast = system: HS 578T breast
NCI-H23 lung = system: NCI-H23 lung
SN12C renal = system: SN12C renal
KM12 colon = system: KM12 colon
RXF 393 renal = system: RXF 393 renal
NCI-H226 lung = system: NCI-H226 lung
PC-3 prostate = system: PC-3 prostate
786-0 renal = system: 786-0 renal
SK-OV-3 ovarian = system: SK-OV-3 ovarian
SK-MEL-5 melanoma = system: SK-MEL-5 melanoma
SNB-75 CNS = system: SNB-75 CNS
A498 renal = system: A498 renal
SK-MEL-2 melanoma = system: SK-MEL-2 melanoma
MCF7 breast = system: MCF7 breast
HCC-2998 colon = system: HCC-2998 colon
IGROV1 ovarian = system: IGROV1 ovarian
NCI-H460 lung = system: NCI-H460 lung
SNB-19 CNS = system: SNB-19 CNS
OVCAR-5 ovarian = system: OVCAR-5 ovarian
TK-10 renal = system: TK-10 renal
UO-31 renal = system: UO-31 renal

CCN1CCN(CCNc2nccc(-c3c(-c4cccc(O)c4)nc4sccn34)n2)S1(=O)=O
32.5 µM and 57.6 µM: TGI (MOLT-4 leukemia)
32.5 µM and 25.6 µM: TGI (A498 renal)
32 µM and > 100 µM: TGI (ACHN renal)
6.11 µM and 4.62 µM: TGI (UACC-62 melanoma)
32.5 µM and 46.1 µM: TGI (CCRF-CEM leukemia)
32.5 µM and > 100 µM: TGI (K-562 leukemia) | TGI (U251 CNS) | TGI (DU-145 prostate) | TGI (SK-MEL-28 melanoma) | TGI (OVCAR-8 ovarian) | TGI (OVCAR-3 ovarian) | TGI (MDA-MB-231 breast) | TGI (SF-268 CNS) | TGI (HCT-15 colon) | TGI (A549 NSCLC) | TGI (OVCAR-4 ovarian) | TGI (SN12C renal) | TGI (KM12 colon) | TGI (PC-3 prostate) | TGI (786-0 renal) | TGI (SNB-75 CNS) | TGI (MCF7 breast) | TGI (HCC-2998 colon) | TGI (IGROV1 ovarian) | TGI (OVCAR-5 ovarian) | TGI (TK-10 renal)
32.5 µM and 51.9 µM: TGI (NCI-H23 lung)
32.5 µM and 78.3 µM: TGI (NCI-H460 lung)
20.7 µM and 40.8 µM: TGI (RPMI-8226 leukemia)
30.2 µM and > 100 µM: TGI (HS 578T breast)
32.5 µM and 92.5 µM: TGI (SW-620 colon)
> 100 µM: TGI (HOP-62 NSCLC) | TGI (EKVX NSCLC) | TGI (SNB-19 CNS)
active: GI50 (MALME-3M melanoma) 0.0775 µM and 0.118 µM | GI50 (M14 melanoma) 0.168 µM and 0.142 µM | GI50 (SK-MEL-28 melanoma) 0.181 µM and 0.13 µM | GI50 (UACC-257 melanoma) 0.31 µM and 0.215 µM | GI50 (MDA-MB-435) 0.313 µM and 0.376 µM | GI50 (COLO 205 colon) 0.296 µM and 0.336 µM | GI50 (UACC-62 melanoma) 0.105 µM and 0.0766 µM
10.4 µM and 7.27 µM: TGI (SK-MEL-2 melanoma)
32.5 µM and 22.8 µM: TGI (SK-OV-3 ovarian)
32.5 µM: TGI (HL-60(TB) leukemia)
22.7 µM and 36.3 µM: TGI (RXF 393 renal)
32.5 µM and 74 µM: TGI (UO-31 renal)
32.5 µM and 48.8 µM: TGI (SF-295 CNS)
32.5 µM and 9.03 µM: TGI (UACC-257 melanoma)
29.8 µM and 31.2 µM: TGI (NCI-H522 lung)
25.7 µM and 23.5 µM: TGI (LOX IMVI melanoma)
23.1 µM and 20.7 µM: TGI (SK-MEL-5 melanoma)
32.5 µM and 64.3 µM: TGI (SR leukemia)
32.5 µM and 53 µM: TGI (T-47D breast)
> 32.5 µM and 84.3 µM: TGI (NCI-H226 lung)
32.5 µM and 31.7 µM: TGI (HT29 colon)
32.5 µM and 55.3 µM: TGI (HCT-116 colon)
19.8 µM and 10.8 µM: TGI (M14 melanoma)
32.5 µM and 78.5 µM: TGI (SF-539 CNS)
32.5 µM and 69.9 µM: TGI (HOP-92 NSCLC)
14.5 µM and 5.79 µM: TGI (MDA-MB-435)
0.42 µM and 0.785 µM: TGI (MALME-3M melanoma)
32.5 µM and 15.9 µM: TGI (COLO 205 colon)
28.5 µM and > 100 µM: TGI (CAKI-1 renal)
32.5 µM and 76.6 µM: TGI (BT-549 breast)
32.5 µM and 86.1 µM: TGI (NCI/ADR-RES ovarian)
inactive: GI50 (K-562 leukemia) 11.9 µM and 11.4 µM | GI50 (U251 CNS) 30.8 µM and 11.1 µM | GI50 (ACHN renal) 6.72 µM and 4.13 µM | GI50 (RPMI-8226 leukemia) 6.37 µM and 16.3 µM | GI50 (HCT-116 colon) 9.72 µM and 3.63 µM | GI50 (HOP-92 NSCLC) 6.2 µM and 0.671 µM | GI50 (HT29 colon) 4.53 µM and 2.2 µM | GI50 (DU-145 prostate) 16.1 µM and 8.51 µM | GI50 (BT-549 breast) 20.4 µM and 6.31 µM | GI50 (OVCAR-8 ovarian) 16.1 µM and 10.9 µM | GI50 (LOX IMVI melanoma) 4.96 µM and 2.53 µM | GI50 (T-47D breast) 22.1 µM and 11 µM | GI50 (SF-539 CNS) 28.6 µM and 21.3 µM | GI50 (NCI/ADR-RES ovarian) 23.3 µM and 26.5 µM | GI50 (HL-60(TB) leukemia) 11.8 µM | GI50 (OVCAR-3 ovarian) 20.1 µM and 21.4 µM | GI50 (MDA-MB-231 breast) 10.5 µM and 7.3 µM | GI50 (HOP-62 NSCLC) > 32.5 µM and 26.4 µM | GI50 (SF-268 CNS) 23.4 µM and 19.9 µM | GI50 (HCT-15 colon) 11.7 µM and 8.63 µM | GI50 (A549 NSCLC) 15.4 µM and 9.27 µM | GI50 (NCI-H522 lung) 7.65 µM and 4.27 µM | GI50 (OVCAR-4 ovarian) 19.5 µM and 12.1 µM | GI50 (CCRF-CEM leukemia) 8.83 µM and 5.52 µM | GI50 (SW-620 colon) 21.1 µM and 15.7 µM | GI50 (SR leukemia) 7.65 µM and 5.96 µM | GI50 (MOLT-4 leukemia) 19.2 µM and 21.7 µM | GI50 (CAKI-1 renal) 7.33 µM and 3 µM | GI50 (SF-295 CNS) 14.2 µM and 16.4 µM | GI50 (EKVX NSCLC) > 32.5 µM and 34.6 µM | GI50 (HS 578T breast) 12.9 µM and 10 µM | GI50 (NCI-H23 lung) 12.4 µM | GI50 (SN12C renal) 15.2 µM and 7.73 µM | GI50 (KM12 colon) 11 µM and 11.2 µM | GI50 (RXF 393 renal) 4.02 µM and 5.06 µM | GI50 (NCI-H226 lung) > 32.5 µM and 26.4 µM | GI50 (PC-3 prostate) 17.6 µM and 20.1 µM | GI50 (786-0 renal) 22.1 µM and 7.86 µM | GI50 (SK-OV-3 ovarian) 7.93 µM and 3.95 µM | GI50 (SK-MEL-5 melanoma) 5.28 µM and 6.28 µM | GI50 (SNB-75 CNS) 12.6 µM and 6.84 µM | GI50 (A498 renal) 16.6 µM and 3.97 µM | GI50 (SK-MEL-2 melanoma) 2.05 µM and 2.6 µM | GI50 (MCF7 breast) 26 µM and 19.5 µM | GI50 (HCC-2998 colon) 32.1 µM and 29.4 µM | GI50 (IGROV1 ovarian) 11.9 µM and 5.5 µM | GI50 (NCI-H460 lung) 11.8 µM and 5.86 µM | GI50 (SNB-19 CNS) > 32.5 µM and 71.5 µM | GI50 (OVCAR-5 ovarian) 21.7 µM and 65 µM | GI50 (TK-10 renal) 19.4 µM and 9.68 µM | GI50 (UO-31 renal) 15.1 µM and 5.75 µM
